Literature values as cited in US11607623B2, “Dynamic interface system and its application in supercritical fluid extraction and chromatography” (CORNERSTONE TECHNOLOGIES LLC, priority 2019, dated 2023).

SMILES	molar solubility in SC-CO2, course across temperature (220-240 bar, across the 42-72° C. temperature ranges)	solubility in SC-CO2 at 54° C. relative to 41° C. or 61° C. (lower pressures 160-180 bar)	solubility in SC-CO2, change with temperature (pressures of 220-240 bar, temperature raised from 42° C. to 72° C.)
CCCCCc1cc(O)c2c(c1)OC(C)(C)c1ccc(C)cc1-2 [CBN, cannabinol]	inverted-U curve	two-fold greater	–
CCCCCc1cc(O)c2c(c1)OC(C)(C)[C@@H]1CCC(C)=C[C@@H]21 [THC, delta-9-tetrahydrocannabinol]	–	–	two-fold increase
